Laboratory results published in patent US4202979A, “6-Ethyl(or allyl)-8-methoxymethyl or methylmercaptomethylergolines and related compounds” (priority 1979, dated 1980).
Structures can show the parent of a compound that is named as a salt. Where two headings read alike, the source gives them in different places.

Legend:
[1] = background; cited from earlier work
prolactin [2] = details: literature; cited from earlier work
dopamine receptor = details: literature; cited from earlier work
Parkinsonism = details: literature; cited from earlier work
[3] = test system: 6-hydroxydopamine-lesioned rats (dopamine agonist activity); experiment: rat turning test (turning behavior contralateral to lesion in 6-hydroxydopamine-lesioned rats); assay type: in vivo; details: for Average Number of Turns/rat: first 15 minutes after end of latency period
Protocol: In this test, nigro-neostriatal-lesioned rats are employed, which are prepared by the procedure of Ungerstedt and Arbuthnott, Brain Res, 24, 485 (1970). A compound having dopamine agonist activity causes the rats to turn in circles contralateral to the side of the lesion. After a latency period, which varies from compound to compound, the number of turns is counted over a 15-minute period.
The compounds were dissolved in water and the aqueous solution injected into the rat by the intraperitoneal route.

prolactin [4] = experiment: inhibition of serum prolactin in reserpine-pretreated male rats; assay type: in vivo, rat (Sprague-Dawley); details: for inhibition at 0.05 mg/kg: Rattus norvegicus, ip, read-out: Percent Inhibition of Serum Prolactin
Protocol: Adult male rats of the Sprague-Dawley strain weighing about 200 g. were housed in an air-conditioned room with controlled lighting (lights on 6 a.m.-8 p.m.) and fed lab chow and water ad libitum. Each rat received an intraperitoneal injection of 2.0 mg. of reserpine in aqueous suspension 18 hours before administration of the ergoline derivative. The purpose of the reserpine was to keep prolactin levels uniformly elevated. The compounds under test were dissolved in 10 percent ethanol at a concentration of 10 mcg/ml. and were injected intraperitoneally at a standard dose of 50 mcg/kg. Each compound was administered to a group of 10 rats, and a control group of 10 intact males received an equivalent amount of 10 percent ethanol. One hour after treatment all rats were killed by decapitation, and 150 μl aliquots of serum were assayed for prolactin. The results were evaluated statistically using Student's "t" test to calculate the level of significance, "p", of the changes in prolactin level.
The difference between the prolactin level of the treated rats and prolactin level of the control rats, divided by the prolactin level of the control rats gives the percent inhibition of prolactin secretion attributable to the compounds of this invention. In the table, column 1 gives the name of the compound; column 2, the prolactin level for each group of rats; column 3, the percent prolactin inhibition; and column 4, the level of significance. The data were collected from three separate experiments, each with its own control, and Table 2 sets forth the results obtained by experiment.

dopamine receptors = experiment: inhibition of high affinity binding of tritiated dopamine to dopamine receptors in membranes from striatal synaptosomes of bovine brain; details: for Ki: Table 3, tritiated dopamine, striatal synaptosomes of bovine brain
prolactin [5] = experiment: inhibition of serum prolactin in reserpine-pretreated male rats; assay type: in vivo, rat (Sprague-Dawley); details: from dose response curves
serotonin = serotonin agonist activity
[6] = Experiment 3, 50 mcg/kg i.p., 1 hour, control 42.3 ± 7.3, P <0.001
[7] = Experiment 1, 50 mcg/kg i.p., 1 hour, control 30.4 ± 3.4, P <0.001 or <0.01

Structure (SMILES)	% of Rats Exhibiting Turning Behavior ([3]; IP dose 1 mg/kg, Table I) [%]	Duration of Effect ([3]; IP dose 1 mg/kg, Table I) [h]	Latency of Effect ([3]; IP dose 1 mg/kg, Table I) [min]	Average Number of Turns/rat ([3]; IP dose 1 mg/kg, Table I) [Turns/rat]	inhibition at 0.05 mg/kg (prolactin [4]; 1 h) [%]	Ki (dopamine receptors) [nM]	further results
N[C@@H](Cc1ccc(O)c(O)c1)C(=O)O [1-dopa, 1-dihydroxyphenylalanine]	–	–	–	–	–	–	metabolism (in words) [1]: rapidly metabolized
CC(C)C[C@H]1C(=O)N2CCC[C@H]2[C@]2(O)O[C@](NC(=O)[C@@H]3C=C4c5cccc6[nH]c(Br)c(c56)C[C@H]4N(C)C3)(C(C)C)C(=O)N12 [2-bromo-α-ergokryptine]	–	–	–	–	–	–	prolactin inhibitor activity (in words) (prolactin [2]): activity as prolactin inhibitors; dopamine receptor stimulation (in words) (dopamine receptor): stimulate dopamine receptors; treatment of Parkinsonism (in words) (Parkinsonism): useful in the treatment of Parkinsonism
CCCN1C[C@H](CSC)C[C@@H]2c3cccc4[nH]c(Br)c(c34)C[C@H]21 [D-2-bromo-6-n-propyl-8β-methylmercaptomethylergoline]	100	1	5	71	89	3	Serum Prolactin Level (prolactin [4]; [6]): 4.6 ± 0.4 ng/mL
CSC[C@@H]1C[C@@H]2c3cccc4[nH]c(Cl)c(c34)C[C@H]2N(C)C1 [D-2-chloro-6-methyl-8β-methylmercaptomethylergoline mesylate, reference compound]	–	–	–	–	–	6	–
C=CCN1C[C@H](CSC)C[C@@H]2c3cccc4[nH]cc(c34)C[C@H]21 [D-6-allyl-8β-methylmercaptomethylergoline]	–	–	–	–	–	5	–
CCN1C[C@H](CSC)C[C@@H]2c3cccc4[nH]cc(c34)C[C@H]21 [D-6-ethyl-8β-methylmercaptomethylergoline]	100	≥ 2	9	112	91	3.5	Serum Prolactin Level (prolactin [4]; [6]): 3.9 ± 0.4 ng/mL
CN1CC(CC#N)C[C@@H]2c3cccc4[nH]cc(c34)C[C@H]21 (stereo partly drawn) [D-6-methyl-8-cyanomethylergoline]	–	–	–	–	–	–	prolactin inhibitor activity (in words) (prolactin [2]): activity as prolactin inhibitors
COC[C@@H]1C[C@@H]2c3cccc4[nH]cc(c34)C[C@H]2N(C)C1 [D-6-methyl-8β-methoxymethylergoline mesylate, reference compound]	–	–	–	–	–	75	–
CSC[C@@H]1C=C2c3cccc4[nH]cc(c34)C[C@H]2N(C)C1 [D-6-methyl-8β-methylmercaptomethyl-9-ergolene, reference compound]	–	–	–	–	–	6	–
CSC[C@@H]1C[C@@H]2c3cccc4[nH]cc(c34)C[C@H]2N(C)C1 [D-6-methyl-8β-methylmercaptomethylergoline mesylate, reference compound]	50	–	30 to 45	51	58	13	Duration of Effect in Hours ([3]; IP dose 1 mg/kg, Table I): ~ 2 Hours; Serum Prolactin Level (prolactin [4]; [7]): 12.8
CCCN1CC(CSC)=C[C@@H]2c3cccc4[nH]cc(c34)C[C@H]21 [D-6-n-propyl-8-methylmercaptomethyl-8-ergolene]	100	1	4	118	91	2	Serum Prolactin Level (prolactin [4]; [6]): 3.9 ± 0.2 ng/mL
CCCN1C[C@H](COC)C[C@@H]2c3cccc4[nH]cc(c34)C[C@H]21 [D-6-n-propyl-8β-methoxymethylergoline methanesulfonate]	100	≥ 2	6	111	96	10	Serum Prolactin Level (prolactin [4]; Experiment 2, 50 mcg/kg i.p., 1 hour, control 55.2 ± 4.1, P <0.001): 2.4 ± 0.2 ng/mL
CCCN1C[C@H](CSC)C=C2c3cccc4[nH]cc(c34)C[C@H]21 [D-6-n-propyl-8β-methylmercaptomethyl-9-ergolene]	100	≥ 2	4	200	81	2	Serum Prolactin Level (prolactin [4]; [6]): 8.1 ± 1.2
CCCN1C[C@H](CSC)C[C@@H]2c3cccc4[nH]cc(c34)C[C@H]21 [D-6-n-propyl-8β-methylmercaptomethylergoline methanesulfonate]	–	≥ 24	5 to 7	105	–	3 ± 1	average turns per lesioned rat ([3]; 15-minute period after latency): 105 turns per lesioned rat; potency in the turning behavior test relative to the corresponding D-6-methyl derivative ([3]; from dose response curves, 6-hydroxydopamine-lesioned rats): about 30 times; Serum Prolactin Level (prolactin [4]; [7]): 1.6 ± 0.4 ng/mL; inhibition at 0.05 mg/kg (prolactin [4]; Experiment 1, 50 mcg/kg i.p., 1 hour, P <0.001 (n-propyl), <0.01 (methyl)): 95%; potency as a prolactin inhibitor relative to the corresponding D-6-methyl compound (prolactin [5]): about 100 times
CCCN1C[C@H](CSC)C[C@@H]2c3cccc4[nH]cc(c34)C[C@H]21 [D-6-n-propyl-8β-methylmercaptomethylergoline]	–	–	–	–	–	–	inhibition of high affinity binding of tritiated dopamine (in words) (dopamine receptors; bovine striatal synaptosome membranes): extremely potent inhibitors; serotonin activity (in words) (serotonin): serotonin agonists rather than serotonin antagonists
CCCN1C[C@H](C[S+](C)[O-])C[C@@H]2c3cccc4[nH]cc(c34)C[C@H]21 (stereo partly drawn) [D-6-n-propyl-8β-methylsulfinylmethylergoline]	100	1	7	65	92	–	Serum Prolactin Level (prolactin [4]; [6]): 3.3 ng/mL
CC(C)[C@H]1C(=O)N2CCC[C@H]2[C@]2(O)O[C@](NC(=O)[C@@H]3C=C4c5cccc6[nH]cc(c56)C[C@H]4N(C)C3)(C(C)C)C(=O)N12 [Ergocornine]	–	–	–	–	–	–	prolactin inhibitor activity (in words) (prolactin [2]): activity as prolactin inhibitors; dopamine receptor stimulation (in words) (dopamine receptor): direct dopamine receptor stimulants of long duration
CC(C)[C@H]1C(=O)N2CCC[C@H]2[C@]2(O)O[C@](NC(=O)[C@@H]3C[C@@H]4c5cccc6[nH]cc(c56)C[C@H]4N(C)C3)(C(C)C)C(=O)N12 [dihydroergocornine]	–	–	–	–	–	–	prolactin inhibitor activity (in words) (prolactin [2]): activity as prolactin inhibitors
CN1C[C@H](CC#N)C[C@@H]2c3cccc4[nH]c(Cl)c(c34)C[C@H]21 [lergotrile]	–	–	–	–	–	–	treatment of Parkinsonism (in words) (Parkinsonism): useful in the treatment of Parkinsonism
